What was measured:
[1] = system: rat monocrotaline-administered pulmonary hypertension model; experiment: Rat monocrotaline-administered pulmonary hypertension model, administration from advanced stage; type: in vivo, rat (Wistar strain); settings: 10 mg/kg orally once per day for 18 or 19 days from Day 10 after monocrotaline; t-test p<0.05; FIG. 7
Method: Rats (Wistar strain, male, 5 weeks old; JAPAN SLC, Inc.) with pulmonary hypertension induced by subcutaneous administration of an aqueous monocrotaline (Sigma Corporation) solution (60 mg/kg) to the back were provided as “group with induced pulmonary hypertension”. On the other hand, rats to which water for injection was similarly administered were provided as “normal group”.
To rats in the group with induced pulmonary hypertension, Example Compound 1 (3 or 10 mg/kg) or a positive control compound tadalafil (10 mg/kg) was orally administered once per day. Administration of Example Compound 1 (3 or 10 mg/kg) was carried out for 18 or 19 days from Day 10 after the administration of monocrotaline. Administration of tadalafil (10 mg/kg) was carried out for 28 or 29 days from the day of administration of monocrotaline. […]
On the last day of administration of the test compound, blood was collected from the abdominal vena cava of each rat under anesthesia, and the rat was then euthanized, followed by removal of the heart for measurement of the wet weights of the right ventricle, left ventricle and septum to determine the right ventricular weight ratio (right ventricular weight/(septum weight+left ventricular weight)). The 14,15-DHET concentration in the collected blood was measured by the ELISA method. […]

[2] = system: rat diabetic nephropathy model; experiment: Pharmacological effect in rat diabetic nephropathy model (streptozotocin); type: in vivo, rat (spontaneously hypertensive rat); settings: mean±standard error, n=6
Method: Example Compound 1 was administered to a rat diabetic nephropathy model (International Journal of Molecular Medicine, 2007, vol. 19, p. 571-579; Hypertension, 1998, vol. 32, p. 778-785), and the therapeutic effect of the nipecotic acid derivative (I) or a pharmaceutically acceptable salt thereof on chronic renal disease with diabetic nephropathy was evaluated.
Rats (spontaneously hypertensive rat, male, 12 or 13 weeks old; Charles River Laboratories Japan, Inc.) with diabetic nephropathy induced by administration of an aqueous streptozotocin (Enzo Life Sciences, Inc.) solution (40 mg/kg) into the tail vein were provided as “group with induced diabetic nephropathy”. On the other hand, rats to which water for injection was similarly administered were provided as “untreated group”.
Six weeks after administration of streptozotocin, urine was collected using a metabolic cage at room temperature for 24 hours. The urinary albumin concentration in the collected urine was measured by the ELISA method. From the urinary albumin concentration and the urine weight, the amount of urinary albumin excretion was calculated.
To rats showing pathological conditions of diabetic nephropathy in the group with induced diabetic nephropathy, Example Compound 1 (10 mg/kg) or a positive control compound imidapril (2 mg/kg) was orally administered once per day for 20 days from Day 8 after the administration of streptozotocin. […]
After the last administration of the test substance on Day 27 after administration of streptozotocin, urine was collected using a metabolic cage at room temperature for 24 hours. The urinary albumin concentration in the collected urine was measured by the ELISA method. From the urinary albumin concentration and the urine weight, the amount of urinary albumin excretion was calculated. In addition, on Day 18 after administration of streptozotocin, the systemic systolic pressure was measured by the tail-cuff method. On Day 29 after administration of streptozotocin, blood was collected from the abdominal aorta of each rat, and the plasma glucose concentration was measured. […]

Question: With `CCC(=O)NC1(C(=O)N2CCC[C@@H](C(=O)NCc3ccc(C#N)cc3OC(F)(F)F)C2)CCC1` [Example Compound 1, (R)—N-(4-cyano-2-(trifluoromethoxy)benzyl)-1-(1-propionamidocyclobutanecarbonyl)piperidine-3-carboxamide] as the compound, how does the “right ventricular weight ratio vs pulmonary hypertension control group” value [1] read?
Answer: Its value is “statistically significantly lower”.

Question: What about the “amount of urinary albumin excretion” value ([2]; Day 27 after streptozotocin, orally once per day for 20 days from Day 8 (Example Compound 1 10 mg/kg, imidapril 2 mg/kg)) of the same compound?
Answer: Its value is 5.41 ± 1.13 mg/day.

Question: And the systemic systolic pressure ([2]; day 18 after streptozotocin, 10 mg/kg orally once per day, tail-cuff)?
Answer: Its systemic systolic pressure is 199±6 mmHg.

— US20150065717A1, “NIPECOTIC ACID DERIVATIVE AND USE THEREOF FOR MEDICAL PURPOSES” (Toray Industries, Inc., priority 2012, published 2015)
